Laboratory results from the supplement of paper PMC5908809.

Columns and labels:
[1] = tested on: normal NK cells expanded with K562-aAPC; test: percent inhibition of viability; higher = more inhibition; settings: 72 h, IL-2 2.5 ng/mL
Description: (§1)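 Drug sensitivity and resistance testing on K562-aAPC-expanded normal NK cells: 5 concentrations (10-fold steps over a 10,000-fold range), 72 h at 37 °C, viability by CellTiter-Glo normalised to DMSO and benzethonium chloride controls; DSS from the fitted curve.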

[2] = tested on: DERL-7 (IL-2 2.5 ng/mL); test: as above; settings: 72 h
[3] = tested on: IMC-1 (IL-2 20 ng/mL); test: as above; settings: 72 h
[4] = tested on: KAI3 (IL-2 2.5 ng/mL); test: as above; settings: 72 h
[5] = tested on: KHYG-1 (IL-2 2.5 ng/mL); test: as above; settings: 72 h
[6] = tested on: NK-92 (IL-2 2.5 ng/mL); test: as above; settings: 72 h
[7] = tested on: NK-YS (IL-2 2.5 ng/mL); test: as above; settings: 72 h
[8] = tested on: NKL (IL-2 2.5 ng/mL); test: as above; settings: 72 h
[9] = tested on: SNK-6 (IL-2 2.5 ng/mL); test: as above; settings: 72 h
[10] = tested on: YT (IL-2 2.5 ng/mL); test: as above; settings: 72 h
[11] = tested on: normal primary NK cells, pool 1 (3 donors) (IL-2 2.5 ng/mL); test: as above; settings: 72 h
[12] = tested on: normal primary NK cells, pool 1 (3 donors), resting (IL-2 0 ng/mL); test: as above; settings: 72 h
[13] = tested on: normal primary NK cells, pool 2 (3 donors) (IL-2 2.5 ng/mL); test: as above; settings: 72 h
[14] = tested on: normal primary NK cells, pool 3 (3 donors) (IL-2 2.5 ng/mL); test: as above; settings: 72 h
[15] = tested on: normal NK cells expanded with K562-aAPC; test: drug sensitivity score (DSS) (DSS units); higher = more sensitive; extreme values may be limits of the assay; settings: 72 h; IL-2 2.5 ng/mL
Description: as §1

[16] = tested on: DERL-7 (IL-2 2.5 ng/mL); test: as above; settings: 72 h
[17] = tested on: IMC-1 (IL-2 20 ng/mL); test: as above; settings: 72 h
[18] = tested on: KAI3 (IL-2 2.5 ng/mL); test: as above; settings: 72 h
[19] = tested on: KHYG-1 (IL-2 2.5 ng/mL); test: as above; settings: 72 h
[20] = tested on: NK-92 (IL-2 2.5 ng/mL); test: as above; settings: 72 h
[21] = tested on: NK-YS (IL-2 2.5 ng/mL); test: as above; settings: 72 h
[22] = tested on: NKL (IL-2 2.5 ng/mL); test: as above; settings: 72 h
[23] = tested on: SNK-6 (IL-2 2.5 ng/mL); test: as above; settings: 72 h
[24] = tested on: YT (IL-2 2.5 ng/mL); test: as above; settings: 72 h
[25] = tested on: normal primary NK cells, pool 1 (3 donors) (IL-2 2.5 ng/mL); test: as above; settings: 72 h
[26] = tested on: normal primary NK cells, pool 1 (3 donors), resting (IL-2 0 ng/mL); test: as above; settings: 72 h
[27] = tested on: normal primary NK cells, pool 2 (3 donors) (IL-2 2.5 ng/mL); test: as above; settings: 72 h
[28] = tested on: normal primary NK cells, pool 3 (3 donors) (IL-2 2.5 ng/mL); test: as above; settings: 72 h

O=C(c1ccc(/C=C/c2n[nH]c3ccccc23)cc1)N1CCNCC1 [KW-2449] (max concentration tested 2500 nM)
percent inhibition of viability [%]
Settings | 0.25 nM | 2.5 nM | 25 nM | 250 nM | 2500 nM
[1] | 1.55 | -7.82 | -4.83 | -5.26 | 33
[2] | -3.07 | -3.42 | -0.35 | -5.82 | 52
[3] | -4.33 | -2.55 | -3.12 | -4.5 | -8.66
[4] | -7.2 | -3.33 | -4.86 | -5.15 | 12.8
[5] | -4.37 | -3.8 | -7.48 | -0.63 | 63.4
[6] | -17.7 | -18 | -20.5 | -12.6 | 18.9
[7] | -5.66 | -7.24 | -6.03 | 0.88 | 42.9
[8] | -16.7 | -15.7 | -8.73 | -17 | 8.68
[9] | 11.8 | 9.47 | 14.2 | 3.56 | 67.5
[10] | 0.95 | 1.96 | -2.99 | -1.32 | 9
[11] | 0.56 | -11.2 | -7.09 | -3.29 | 23.3
[12] | -12.6 | 0.69 | -21.6 | -1.76 | -0.59
[13] | 0.9 | -1.16 | -5.56 | -9.38 | 13.4
[14] | -10.8 | -6.97 | -9.8 | -18.2 | -0.01

Settings | drug sensitivity score
[15] | 1.2
[16] | 2.35
[17] | 0.89
[18] | 0.03
[19] | 3.4
[20] | 0.25
[21] | 2.28
[22] | 0
[23] | 4.22
[24] | 0
[25] | 0.65
[26] | 0
[27] | 0.03
[28] | 0.89

CS(=O)(=O)CCNCc1ccc(-c2ccc3ncnc(Nc4ccc(OCc5cccc(F)c5)c(Cl)c4)c3c2)o1 [Lapatinib] (max concentration tested 1000 nM)
percent inhibition of viability [%]
Settings | 0.1 nM | 1 nM | 10 nM | 100 nM | 1000 nM
[1] | -5.72 | -9.28 | -7.55 | -4.36 | -0.7
[2] | 4.2 | 1.17 | 2.53 | -0.89 | 9.64
[3] | -4.47 | -0.19 | -1 | 2.17 | 9.49
[4] | -4.84 | -7.01 | -5.48 | -1.85 | 11.8
[5] | -0.63 | -4.12 | -1.74 | 0.27 | 9.49
[6] | -9.88 | -2.81 | 5.1 | 30.6 | 28.1
[7] | -7.32 | -8.47 | -3.59 | -5.11 | 5.83
[8] | -3.26 | -0.98 | 3.19 | 8.28 | 14.2
[9] | -20.3 | -7.47 | -17 | -15.2 | -16.8
[10] | -1.2 | -2.12 | -1.08 | 6.88 | 14.2
[11] | -9.91 | 11.7 | 10.2 | 12.6 | 4.9
[12] | -12 | 4 | -0.24 | 6.97 | 30.1
[13] | -7.46 | 8.95 | 4.77 | 1.81 | 4
[14] | -12.2 | 9.92 | 7.91 | -3.46 | -0.3

Settings | drug sensitivity score
[15] | 0
[16] | 0
[17] | 0
[18] | 0.01
[19] | 0
[20] | 6.01
[21] | 0
[22] | 0.4
[23] | 0
[24] | 0.63
[25] | 1.89
[26] | 2.38
[27] | 0
[28] | 0
